Paper PMC10247784, “Physiological activation of human and mouse bitter taste receptors by bile acids” (Communications Biology, 2023)
Read-outs that look alike come from different tables or passages of the source.

Target: T1, mouse Tas2r117 (Mus musculus, UniProt Q7M715)
T1 construct: expressed in transfected cells; host or cells: HEK293T-Gα16gust44
T1 sequence (Q7M715 1-330): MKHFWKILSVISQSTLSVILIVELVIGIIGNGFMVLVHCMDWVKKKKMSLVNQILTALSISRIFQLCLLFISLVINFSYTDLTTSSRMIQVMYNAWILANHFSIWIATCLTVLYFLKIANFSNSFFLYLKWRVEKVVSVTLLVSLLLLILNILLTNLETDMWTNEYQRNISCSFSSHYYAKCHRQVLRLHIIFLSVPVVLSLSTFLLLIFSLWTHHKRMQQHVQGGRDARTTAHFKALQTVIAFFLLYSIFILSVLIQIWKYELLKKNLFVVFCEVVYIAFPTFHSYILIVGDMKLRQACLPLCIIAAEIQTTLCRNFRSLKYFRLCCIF
Experiment: Calcium imaging assay (FLIPR), HEK293T-Gα16gust44 cells transfected with mouse Tas2r117
Assay type: cell-based
Method: This set of bile acids was chosen because of their commercial availability in high purities, their diversity within the class of bile acids and their previous detection and quantitation in human blood. Stock solutions were prepared in DMSO.
As basal growth medium for the HEK293T-Gα16gust44 cell line[17],[59] served Dulbecco’s modified eagle medium (DMEM) (Thermo Fisher Scientific, Darmstadt, Germany) supplemented with 10 % fetal bovine serum (Sigma-Aldrich, Steinheim, Germany), 2 mM L-glutamine (Sigma-Aldrich, Steinheim, Germany), 100 units/ml penicillin (Sigma Aldrich, Steinheim, Germany) and 100 µg/ml streptomycin (Sigma Aldrich, Steinheim, Germany). Growth conditions were 37 °C, 5 % CO2 and saturated air-humidity[60].
HEK293T-Gα16gust44 cells were seeded on poly-D-lysine (10 µg/ml) coated 96-well plates to reach a confluence of 40-60 % the next day. For transient transfection 150 ng of plasmid DNA containing the receptor of interest and 0.3 µl lipofectamine 2000 (Thermo Fisher Scientific, Darmstadt, Germany) per well were used and transfection took place according to the manual of lipofectamine 2000. […] The empty vector DNA (mock) was transfected as negative control[14],[41].
Cells were loaded using the calcium-sensitive fluorescent dye Fluo-4-AM (Abcam, Cambridge, Great Britain) in the presence of 2.5 mM probenecid (Sigma-Aldrich, Steinheim, Germany) the day after transfection[13],[41]. 1 h after loading, cells were washed with C1 buffer using a BioTek Cell Washer, incubated in the dark for half an hour and washed again. For automated agonist application and measurement of fluorescence changes, a FLIPR^TETRA device (Molecular Devices, San José, United States) was used. Viability of cells was tested by application of 100 nM Somatostatin 14 (Bachem, Bubendorf, Switzerland)[42].
Measured data were negative control corrected by subtracting the signal of the mock-transfected cells and exported to Microsoft Excel using the FLIPR software ScreenWorks 4.2. In Microsoft Excel software, standardization of maximum fluorescence intensities to the basal fluorescence and normalization to the buffer-only control was done to calculate the relative fluorescence changes (ΔF/F).
Initial screening experiments performed in duplicate wells were confirmed by at least one replication and representative traces were selected for display. All dose-response relationships were determined by three independent experiments (biological replicates) performed in duplicates (technical replicates). Threshold concentrations, defined as lowest substance concentrations leading to statistically significant elevated fluorescence changes in receptor-transfected cells compared with empty vector-transfected cells, were determined using SigmaPlot with Student’s t-test to evaluate statistical significance (p < 0.01).

SMILES: C[C@H](CCC(=O)O)[C@H]1CC[C@H]2[C@@H]3[C@H](O)C[C@@H]4C[C@H](O)CC[C@]4(C)[C@H]3C[C@H](O)[C@]12C [Cholic Acid, cholic acid]
- EC50: 20.6 ± 5.1 µM
- RLU: 487.07 RLU
- RLU (Time (s) 0, sheet Tas2r117, time trace): 0 RLU
- RLU (Time (s) 2, sheet Tas2r117, time trace): 4.604 RLU
- RLU (Time (s) 4, sheet Tas2r117, time trace): 10.2904 RLU
- RLU (Time (s) 6, sheet Tas2r117, time trace): -0.8806 RLU
- RLU (Time (s) 8, sheet Tas2r117, time trace): 6.861 RLU
- RLU (Time (s) 12, sheet Tas2r117, time trace): -14.1517 RLU
- RLU (Time (s) 14, sheet Tas2r117, time trace): 7.665 RLU
- RLU (Time (s) 16, sheet Tas2r117, time trace): -9.341 RLU
- RLU (Time (s) 18, sheet Tas2r117, time trace): -12.0783 RLU
- RLU (Time (s) 18.797, sheet Tas2r117, time trace): -24.6076 RLU
- RLU (Time (s) 20.797, sheet Tas2r117, time trace): -3.383 RLU
- RLU (Time (s) 22.797, sheet Tas2r117, time trace): 39.9085 RLU
- RLU (Time (s) 24.797, sheet Tas2r117, time trace): 65.6016 RLU
- RLU (Time (s) 26.797, sheet Tas2r117, time trace): 75.6489 RLU
- RLU (Time (s) 28.797, sheet Tas2r117, time trace): 128.888 RLU
- RLU (Time (s) 30.797, sheet Tas2r117, time trace): 168.759 RLU
- RLU (Time (s) 32.797, sheet Tas2r117, time trace): 221.976 RLU
- RLU (Time (s) 34.797, sheet Tas2r117, time trace): 270.035 RLU
- RLU (Time (s) 36.797, sheet Tas2r117, time trace): 288.662 RLU
- RLU (Time (s) 38.797, sheet Tas2r117, time trace): 310.785 RLU
- RLU (Time (s) 40.797, sheet Tas2r117, time trace): 342.959 RLU
- RLU (Time (s) 42.797, sheet Tas2r117, time trace): 363.04 RLU
- RLU (Time (s) 44.797, sheet Tas2r117, time trace): 380.411 RLU
- RLU (Time (s) 46.797, sheet Tas2r117, time trace): 395.355 RLU
- RLU (Time (s) 48.797, sheet Tas2r117, time trace): 398.151 RLU
- RLU (Time (s) 50.797, sheet Tas2r117, time trace): 423.224 RLU
- RLU (Time (s) 52.797, sheet Tas2r117, time trace): 441.862 RLU
- RLU (Time (s) 54.797, sheet Tas2r117, time trace): 446.522 RLU
- RLU (Time (s) 56.797, sheet Tas2r117, time trace): 453.199 RLU
- RLU (Time (s) 58.797, sheet Tas2r117, time trace): 444.318 RLU
- RLU (Time (s) 60.797, sheet Tas2r117, time trace): 456.236 RLU
- RLU (Time (s) 62.797, sheet Tas2r117, time trace): 461.012 RLU
- RLU (Time (s) 64.797, sheet Tas2r117, time trace): 474.623 RLU
- RLU (Time (s) 66.797, sheet Tas2r117, time trace): 445.559 RLU
- RLU (Time (s) 70.797, sheet Tas2r117, time trace): 480.113 RLU
- RLU (Time (s) 72.797, sheet Tas2r117, time trace): 466.131 RLU
- RLU (Time (s) 74.797, sheet Tas2r117, time trace): 473.506 RLU
- RLU (Time (s) 76.797, sheet Tas2r117, time trace): 498.186 RLU
- RLU (Time (s) 78.797, sheet Tas2r117, time trace): 506.034 RLU
- RLU (Time (s) 80.797, sheet Tas2r117, time trace): 507.589 RLU
- RLU (Time (s) 82.797, sheet Tas2r117, time trace): 514.994 RLU
- RLU (Time (s) 84.797, sheet Tas2r117, time trace): 484.679 RLU
- RLU (Time (s) 86.797, sheet Tas2r117, time trace): 500.585 RLU
- RLU (Time (s) 88.797, sheet Tas2r117, time trace): 496.095 RLU
- RLU (Time (s) 90.797, sheet Tas2r117, time trace): 517.962 RLU
- RLU (Time (s) 92.797, sheet Tas2r117, time trace): 513.104 RLU
- RLU (Time (s) 94.797, sheet Tas2r117, time trace): 501.803 RLU
- RLU (Time (s) 96.797, sheet Tas2r117, time trace): 495.693 RLU
- RLU (Time (s) 98.797, sheet Tas2r117, time trace): 496.063 RLU
- RLU (Time (s) 100.797, sheet Tas2r117, time trace): 476.828 RLU
- RLU (Time (s) 102.797, sheet Tas2r117, time trace): 478.659 RLU
- RLU (Time (s) 104.797, sheet Tas2r117, time trace): 493.353 RLU
- RLU (Time (s) 106.797, sheet Tas2r117, time trace): 481.214 RLU
- RLU (Time (s) 108.797, sheet Tas2r117, time trace): 477.549 RLU
- RLU (Time (s) 110.797, sheet Tas2r117, time trace): 489.03 RLU
- RLU (Time (s) 112.797, sheet Tas2r117, time trace): 467.178 RLU
- RLU (Time (s) 114.797, sheet Tas2r117, time trace): 460.468 RLU
- RLU (Time (s) 116.797, sheet Tas2r117, time trace): 475.775 RLU
- RLU (Time (s) 118.797, sheet Tas2r117, time trace): 475.734 RLU
- RLU (Time (s) 120.797, sheet Tas2r117, time trace): 478.85 RLU
- RLU (Time (s) 122.797, sheet Tas2r117, time trace): 455.77 RLU
- RLU (Time (s) 124.797, sheet Tas2r117, time trace): 448.646 RLU
- RLU (Time (s) 126.797, sheet Tas2r117, time trace): 473.935 RLU
- RLU (Time (s) 128.797, sheet Tas2r117, time trace): 443.919 RLU
- RLU (Time (s) 130.797, sheet Tas2r117, time trace): 439.491 RLU
- RLU (Time (s) 132.797, sheet Tas2r117, time trace): 446.634 RLU
- RLU (Time (s) 134.797, sheet Tas2r117, time trace): 438.919 RLU
- RLU (Time (s) 136.797, sheet Tas2r117, time trace): 440.652 RLU
- RLU (Time (s) 137.562, sheet Tas2r117, time trace): 432.872 RLU
- RLU (Time (s) 143.578, sheet Tas2r117, time trace): 412.03 RLU
- RLU (Time (s) 149.578, sheet Tas2r117, time trace): 376.064 RLU
- RLU (Time (s) 155.578, sheet Tas2r117, time trace): 372.116 RLU
- RLU (Time (s) 161.578, sheet Tas2r117, time trace): 346.14 RLU
- RLU (Time (s) 167.578, sheet Tas2r117, time trace): 348.952 RLU
- RLU (Time (s) 173.578, sheet Tas2r117, time trace): 334.535 RLU
- RLU (Time (s) 179.578, sheet Tas2r117, time trace): 329.157 RLU
- RLU (Time (s) 191.578, sheet Tas2r117, time trace): 289.619 RLU
- RLU (Time (s) 197.578, sheet Tas2r117, time trace): 289.013 RLU
- RLU (Time (s) 209.578, sheet Tas2r117, time trace): 239.803 RLU
- RLU (Time (s) 221.578, sheet Tas2r117, time trace): 142.758 RLU
- RLU (Time (s) 233.578, sheet Tas2r117, time trace): 144.622 RLU
- RLU (Time (s) 239.578, sheet Tas2r117, time trace): 165.061 RLU
- RLU (Time (s) 245.578, sheet Tas2r117, time trace): 139.32 RLU
- RLU (Time (s) 293.578, sheet Tas2r117, time trace): 116.805 RLU
- RLU (Time (s) 299.578, sheet Tas2r117, time trace): 113.227 RLU
- RLU (Time (s) 305.578, sheet Tas2r117, time trace): 94.7752 RLU
- RLU (Time (s) 311.578, sheet Tas2r117, time trace): 118.792 RLU
- RLU (Time (s) 317.578, sheet Tas2r117, time trace): 98.6072 RLU
- RLU (Time (s) 323.578, sheet Tas2r117, time trace): 115.27 RLU
- RLU (Time (s) 329.578, sheet Tas2r117, time trace): 87.0157 RLU
- RLU (Time (s) 335.578, sheet Tas2r117, time trace): 73.721 RLU
- RLU (Time (s) 341.578, sheet Tas2r117, time trace): 98.5271 RLU
- RLU (Time (s) 347.578, sheet Tas2r117, time trace): 75.5864 RLU
- RLU (Time (s) 353.578, sheet Tas2r117, time trace): 82.9151 RLU
- RLU (Time (s) 359.578, sheet Tas2r117, time trace): 69.2265 RLU
- Activation threshold concentration Tas2r117 (p < 0.01 vs empty vector): 10 µM
